The record followed here is patent US20230059009A1, “INHIBITORS OF LIN28 AND METHODS OF USE THEREOF” (The Regents of the University of California, priority 2019, published 2023).

One data set relates to LSCs. Kind of data set: Colony forming capacity (CFC) of iMLL-AF9 LT-HSC derived LSCs. The class given is cell-based, mouse. As to conditions: 200 nM Ara-C or 30 μM 1632, 48 h. From the text: In addition, Lin28 was independently found to be a key driver in MLL-associated leukemias (56). In order to further characterize the role of Lin28/let-7 in regulating AML, LSC proliferation and therapy resistance in vivo, we used a doxycycline (DOX) inducible, transgenic mouse model for MLL-AF9-driven AML (iMLL-AF9 (57)). In this model, long-term HSC (LT-HSC, Lin^−CD34^−[…] c-Kit^+ CD150^+ CD48^−) derived AML blasts closely mirror an LSC-like phenotype resulting in a particularly aggressive, Cytarabine (Ara-C) resistant AML (57). […] Moreover, relapsed AML cells arising from rLSCs after treatment with Ara-C (100 mg/kg) at d+60 were even further enriched in Lin28b expression (FIG. 2B). Additionally, levels of both, let-7a and let-7b miRNAs, negatively correlated with increased Lin28b in rLSCs (FIG. 2C) (10, 39). Our findings are consistent with papers reporting that increased Lin28 correlates with disease recurrence post chemotherapy in colon and liver cancer stem cells (22, 58).
As Lin28 is overexpressed human AML, LSCs and rLSCs, we sought to determine if genetic Lin28b or pharmacologic Lin28/let-7 inhibition via LN1632 can abrogate proliferation of LSCs and thus overcome their therapy resistance. […]

The test system of the next data set is CAPAN-1. Kind of data set: Cell viability, CTG, CAPAN-1. As to conditions: Homo sapiens, CAPAN-1 (Pancreatic). The class given is cell-based. As for the experimental part:
(§1) To measure cell viability, cell titer glow (CTG, Promega CellTiter-Glo 2.0 Assay) and MTT assays (SigmaAldrich, Cell Proliferation Kit I) were performed. Briefly, cells were serum starved overnight prior to seeding in 96-well plates. Following 24 h incubation, cells were treated with increasing concentrations of JGJ compounds for 96 hr. At assay read-out, CellTiter-Glo reagent was added and luminescence was measured after 10-minutes incubation at room temperature. For the MTT assay, MTT labeling reagent was added and incubated for 4 h. Subsequently, medium was removed and 50 μL DMSO was added to solubilize the crystals, and absorbance was measured at 570 nm. Cell viability was calculated as (Sample-Background)/(Control-Background). Current standard of care drugs, Enzalutamide, Palbociclib and Cetuximab were used as comparative controls.

Data set [1] is described as follows: Microsomal stability, Human. The class given is in vitro ADME. As to conditions: Conc. 5 uM.
For another data set, the system named is MDA-MB231. Description: Cell viability, CTG, MDA-MB231. The class given is cell-based. As to conditions: Homo sapiens, MDA-MB-231, MDA-MB231 (Breast). As to the method: as §1
Data set [2] deals with SW480. Kind of data set: Cell viability, CTG, SW480. The class given is cell-based. The following applies: Homo sapiens, SW480 (Colon). As to the method:
as §1, with “(Sample-Background)/(Control-Background).” for “(Sample-Background)/(Control-Background). Current standard of care drugs, Enzalutamide, Palbociclib and Cetuximab were used as comparative controls.”

Data set [3] has as its system SW480. Description: Cell viability, MTT assay, SW480. The format is cell-based. As to conditions: Homo sapiens, SW480 (Colon). As for the experimental part: as §1
The test system of data set [4] is SW620. Kind of data set: Cell viability, CTG, SW620. The format is cell-based. As to conditions: Homo sapiens, SW-620, SW620 (Colon). As to the method:
as §1

In another data set the test system is HCT-116. Description: Cell viability, CTG, HCT-116. As to conditions: Homo sapiens, HCT-116 (Colon). The class given is cell-based. As to the method: as §1
A further data set has as its target CYP 2D6 (Homo sapiens, UniProt P10635). Description: CYP inhibition 2D6. The following applies: Conc. 10 uM. The class given is in vitro ADME. Details: unit not given here.
In another data set the target is T1, CYP 1A2 (Homo sapiens, UniProt P05177).
T1 sequence (P05177 1-516): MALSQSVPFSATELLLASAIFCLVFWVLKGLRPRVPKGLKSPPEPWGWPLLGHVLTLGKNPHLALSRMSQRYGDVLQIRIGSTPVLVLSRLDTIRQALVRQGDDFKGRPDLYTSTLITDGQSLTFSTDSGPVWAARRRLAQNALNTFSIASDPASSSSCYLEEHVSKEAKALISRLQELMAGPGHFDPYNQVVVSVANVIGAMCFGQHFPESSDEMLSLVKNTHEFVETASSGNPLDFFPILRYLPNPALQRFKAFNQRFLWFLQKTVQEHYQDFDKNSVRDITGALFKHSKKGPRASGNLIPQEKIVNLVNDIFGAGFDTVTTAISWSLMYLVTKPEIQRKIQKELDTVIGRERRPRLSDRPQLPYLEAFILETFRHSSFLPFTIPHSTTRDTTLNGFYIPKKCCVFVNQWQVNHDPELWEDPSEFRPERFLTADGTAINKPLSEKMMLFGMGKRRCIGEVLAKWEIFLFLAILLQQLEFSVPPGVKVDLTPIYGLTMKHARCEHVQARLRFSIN
Description: CYP inhibition 1A2. The class given is in vitro ADME. Details: unit not given here. As to conditions: Conc. 10 uM.

In the next data set the target is T2, CYP 2B6 (Homo sapiens, UniProt P20813).
T2 sequence (P20813 1-491): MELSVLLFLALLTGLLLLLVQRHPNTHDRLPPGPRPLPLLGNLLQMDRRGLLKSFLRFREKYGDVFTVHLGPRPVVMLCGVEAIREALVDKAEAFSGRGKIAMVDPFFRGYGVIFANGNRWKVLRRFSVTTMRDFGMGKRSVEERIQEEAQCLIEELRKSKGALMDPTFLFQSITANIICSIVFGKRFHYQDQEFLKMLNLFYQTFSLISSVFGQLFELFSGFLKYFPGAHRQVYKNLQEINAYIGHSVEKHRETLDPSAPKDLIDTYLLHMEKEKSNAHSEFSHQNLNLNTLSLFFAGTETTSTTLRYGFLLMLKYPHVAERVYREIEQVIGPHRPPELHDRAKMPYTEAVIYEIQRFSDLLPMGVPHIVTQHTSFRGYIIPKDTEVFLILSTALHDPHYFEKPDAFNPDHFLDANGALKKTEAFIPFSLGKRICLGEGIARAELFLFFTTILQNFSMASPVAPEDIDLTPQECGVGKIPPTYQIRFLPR
Kind of data set: CYP inhibition 2B6. The class given is in vitro ADME. On the set-up: unit not given here. As to conditions: Conc. 10 uM.

Data set [5] has as its system MCF7. Description: Cell viability, CTG, MCF7. The format is cell-based. As to conditions: Homo sapiens, MCF7 (Breast). As to the method: as §1
The next data set in a line: Caco2 permeability. The format is in vitro ADME. The following applies: human, Caco-2, Conc. 5 uM. In general terms: Caco-2 monolayers are a common model of the intestinal barrier.
A further data set has as its system ASPC-1. Description: Cell viability, CTG, ASPC-1. The following applies: Homo sapiens, ASPC1, ASPC-1 (Pancreatic). The format is cell-based. As to the method: as §1
Data set [6] concerns 22RV1. Kind of data set: Cell viability, CellTiter-Glo (CTG), 22RV1. The format is cell-based. As to conditions: Homo sapiens, 22RV1 (Prostate), 96 hr. As to the method: as §1, with “(Sample-Background)/(Control-Background).” for “(Sample-Background)/(Control-Background). Current standard of care drugs, Enzalutamide, Palbociclib and Cetuximab were used as comparative controls.”

For the next data set, the target named is T3, CYP 2C8 (Homo sapiens, UniProt P10632).
T3 sequence (P10632 1-490): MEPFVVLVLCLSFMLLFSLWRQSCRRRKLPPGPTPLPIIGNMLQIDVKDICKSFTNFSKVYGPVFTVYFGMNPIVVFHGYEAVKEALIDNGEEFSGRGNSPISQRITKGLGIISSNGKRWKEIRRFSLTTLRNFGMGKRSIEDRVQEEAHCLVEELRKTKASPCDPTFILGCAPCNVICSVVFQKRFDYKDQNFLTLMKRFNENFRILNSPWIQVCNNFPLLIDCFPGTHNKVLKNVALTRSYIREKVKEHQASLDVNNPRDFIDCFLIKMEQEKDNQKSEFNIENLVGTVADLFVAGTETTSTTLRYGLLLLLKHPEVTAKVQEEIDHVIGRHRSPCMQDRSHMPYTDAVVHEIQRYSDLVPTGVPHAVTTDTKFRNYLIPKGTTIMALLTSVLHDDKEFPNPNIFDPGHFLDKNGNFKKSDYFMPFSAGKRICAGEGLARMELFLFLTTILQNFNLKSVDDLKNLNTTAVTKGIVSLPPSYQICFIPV
Description: CYP inhibition 2C8. The format is in vitro ADME. On the set-up: unit not given here. The following applies: Conc. 10 uM.

The target of a further data set is CYP 2C19 (Homo sapiens, UniProt P33261). Kind of data set: CYP inhibition 2C19. The format is in vitro ADME. On the set-up: unit not given here. As to conditions: Conc. 10 uM.
CYP 2C19, sequence (P33261 whole entry): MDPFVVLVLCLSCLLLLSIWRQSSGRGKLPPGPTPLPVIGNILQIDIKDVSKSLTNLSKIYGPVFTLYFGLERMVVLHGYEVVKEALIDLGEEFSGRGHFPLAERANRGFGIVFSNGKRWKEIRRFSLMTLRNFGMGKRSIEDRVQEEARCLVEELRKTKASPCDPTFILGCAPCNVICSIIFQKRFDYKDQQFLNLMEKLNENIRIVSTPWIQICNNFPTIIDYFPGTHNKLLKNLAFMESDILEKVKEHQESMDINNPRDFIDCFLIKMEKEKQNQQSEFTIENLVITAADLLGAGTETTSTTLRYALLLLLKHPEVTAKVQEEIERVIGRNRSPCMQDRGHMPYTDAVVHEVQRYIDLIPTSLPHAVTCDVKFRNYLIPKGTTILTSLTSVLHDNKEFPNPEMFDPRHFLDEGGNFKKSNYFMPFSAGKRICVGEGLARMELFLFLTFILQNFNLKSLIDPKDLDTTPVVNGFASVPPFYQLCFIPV
The subject of data set [7] is 22RV1. Description: Cell viability, MTT assay, 22RV1. The format is cell-based. The following applies: Homo sapiens, 22RV1 (Prostate), 96 hr. As for the experimental part: as §1, with “(Sample-Background)/(Control-Background).” for “(Sample-Background)/(Control-Background). Current standard of care drugs, Enzalutamide, Palbociclib and Cetuximab were used as comparative controls.”

The next data set addresses CYP 2C9 (Homo sapiens, UniProt P11712). Kind of data set: CYP inhibition 2C9. The class given is in vitro ADME. On the set-up: unit not given here. As to conditions: Conc. 10 uM.
Data set [8] in a line: Microsomal stability, CD-1 Mouse. As to conditions: Conc. 5 uM. The class given is in vitro ADME.
In another data set the test system is MYC-driven cancers. Description: Cell viability and cell counting assays in cancer cells. As to conditions: TNBC, CRPC, lung and colorectal adenocarcinoma cells. The class given is cell-based. As for the experimental part: To test whether LN1632 and novel analogs thereof affect cancer cell growth, cell viability and cell counting assays in TNBC (FIG. 14B-D), castration resistant prostate cancer cells (CRPC, FIG. 15A-C) and colorectal cancer cells (CRC, FIG. 15A-C) were performed.
as §1

Data set [9] concerns SW620. Description: Cell viability, MTT assay, SW620. The format is cell-based. As to conditions: Homo sapiens, SW-620, SW620 (Colon). As to the method:
as §1
For orientation: Formazan colour is commonly taken as a measure of viable cells.

Data set [10] relates to MCF7. Description: Cell viability, MTT assay, MCF7. As to conditions: Homo sapiens, MCF7 (Breast). The class given is cell-based. As for the experimental part: as §1
The test system of another data set is BT-549. Description: Cell viability, MTT assay, BT-549. The format is cell-based. As to conditions: Homo sapiens, BT-549 (Breast). As for the experimental part: as §1
Setting [11] is: microsomes, read-out: Microsomal stability T½.

CYP 2C9, sequence (P11712 whole entry): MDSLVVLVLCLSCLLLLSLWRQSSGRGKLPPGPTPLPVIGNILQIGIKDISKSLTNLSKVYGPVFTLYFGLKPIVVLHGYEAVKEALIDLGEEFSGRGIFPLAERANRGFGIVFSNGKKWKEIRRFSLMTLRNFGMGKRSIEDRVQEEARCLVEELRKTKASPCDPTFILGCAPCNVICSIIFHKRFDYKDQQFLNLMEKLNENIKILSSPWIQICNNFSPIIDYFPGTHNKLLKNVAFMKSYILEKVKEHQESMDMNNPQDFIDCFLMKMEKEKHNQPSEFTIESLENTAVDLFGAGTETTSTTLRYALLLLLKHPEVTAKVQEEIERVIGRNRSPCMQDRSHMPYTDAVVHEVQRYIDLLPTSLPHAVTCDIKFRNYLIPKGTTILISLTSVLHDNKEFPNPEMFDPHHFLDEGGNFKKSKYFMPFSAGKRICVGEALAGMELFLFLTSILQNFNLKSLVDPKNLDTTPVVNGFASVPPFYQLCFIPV
CYP 2D6, sequence (P10635 whole entry): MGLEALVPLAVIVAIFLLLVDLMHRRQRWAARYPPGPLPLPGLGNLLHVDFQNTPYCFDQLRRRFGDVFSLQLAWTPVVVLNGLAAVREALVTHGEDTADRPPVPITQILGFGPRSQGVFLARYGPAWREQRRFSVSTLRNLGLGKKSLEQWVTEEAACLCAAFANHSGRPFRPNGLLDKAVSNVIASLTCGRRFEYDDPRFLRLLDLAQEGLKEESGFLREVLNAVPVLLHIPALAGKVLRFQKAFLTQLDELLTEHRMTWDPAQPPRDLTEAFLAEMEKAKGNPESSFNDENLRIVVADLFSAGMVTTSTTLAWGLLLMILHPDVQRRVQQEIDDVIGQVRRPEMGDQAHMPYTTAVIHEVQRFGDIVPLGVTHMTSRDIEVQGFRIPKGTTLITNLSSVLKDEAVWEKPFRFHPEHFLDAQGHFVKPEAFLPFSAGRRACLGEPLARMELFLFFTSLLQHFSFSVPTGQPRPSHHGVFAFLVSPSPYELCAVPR

`Nc1ccn([C@@H]2O[C@H](CO)[C@@H](O)[C@@H]2O)c(=O)n1` [Ara-C, Cytarabine]: in the data set with LSCs, the “Colony forming capacity cell numbers (CFCs) of LSCs” value is “did not alter colony forming capacity cell numbers (CFCs)”.

Take `CC(=O)Nc1cc(F)cc(-c2ccc3[nH]cc(-c4ccccc4)c3n2)c1` [JGJ037, N-(3-Fluoro-5-(3-phenyl-1H-pyrrolo[3,2-b]pyridin-5-yl)phenyl)acetamide]: the 50% inhibitory concentration (IC50) in the data set with CAPAN-1 is 22 µM; with MDA-MB231, 11 µM; in the data set with SW480 [2] it was 39 µM; in the data set with SW480 [3] it was 26 µM; in the data set with SW620 [4], 15 µM; in the data set with HCT-116, 76 µM. Besides, the half-inhibitory concentration (IC50) is 15 µM with MCF7 [5]; 31 µM in the data set on ASPC-1; 3000 nM in the data set with 22RV1 [6]; 2000 nM in the data set with 22RV1 [7]; 8.5 µM with SW620 [9]. Also, the entries for the “Microsomal stability % Remaining at T30” value in data set [1] and in data set [8] were “T30 = 91.2%” and “T30 = 78.6%”, respectively. Also, the microsomal CLint at 5 uM in data set [1] (microsomes) came out at 11.6 µL/min/mg; in [8] (microsomes) it was 14.9 µL/min/mg. Besides, the half-life at 5 uM is above 120 min in data set [1] (setting [11]) and 93 min in data set [8] (setting [11]). The “CYP inhibition 2D6” value at CYP 2D6 stood at 93.9. Moreover, the “CYP inhibition 1A2” value at CYP 1A2 turned out to be 88.9. In addition, the “CYP inhibition 2B6” value on CYP 2B6 came out at 69.6. Besides, in “Caco2 permeability”, the Papp A→B at 5 uM worked out at 0.44 ×10⁻⁶ cm/s. The same molecule displayed a Papp B→A at 5 uM in “Caco2 permeability” of 1.69 ×10⁻⁶ cm/s. Also, the efflux ratio at 5 uM in the data set “Caco2 permeability” came to 3.9. For the same molecule, the recovery at 5 uM in the data set “Caco2 permeability” (read-out: Caco2 Mean A-B % Recovery) is 47%. Moreover, the “CYP inhibition 2C8” value on CYP 2C8 worked out at 90.5. The “CYP inhibition 2C19” value on CYP 2C19 was 98.3. Also, on CYP 2C9, the “CYP inhibition 2C9” value is listed as 86.6. For the same molecule, the “Proliferation and apoptosis of cancer cells” value in the data set with MYC-driven cancers was “reduced proliferation and induced apoptosis preferentially in MYC-driven cancers”.

`CC(=O)c1c(C)c2cnc(Nc3ccc(N4CCNCC4)cn3)nc2n(C2CCCC2)c1=O` [Palbociclib, reference compound]: the IC50 is 13 µM in the data set on MDA-MB231, 32 µM with MCF7 [5], 5 µM in the data set with MCF7 [10] and 72 µM with BT-549.

As usually defined, the IC50 is the midpoint of a concentration-inhibition curve. As usually defined, the microsomal CLint is the capacity of the preparation to metabolise the compound, expressed as a volume cleared per time. By Papp A→B is commonly meant how fast a substance crosses the layer from the apical side. What is called Papp B→A is the apparent permeability from the basolateral to the apical side of a cell layer. A word on the efflux ratio: it is the permeability from basolateral to apical divided by that in the opposite direction, in the common usage.
